Results: patent US9938261B2, “Heterocyclic compounds and methods of use thereof” (AMBIT BIOSCIENCES CORPORATION, priority 2011, dated 2018)
Counter-ions that a name gives are not always drawn. Like-named read-outs stand apart in the source and are kept apart here.

What was measured:
[1] = target: T1, CSF1R (Homo sapiens, UniProt P07333); test: Competition binding assay, CSF1R Kd; design: made in house
Procedure, shortened: (§1)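 First, biotinylated affinity ligands were loaded onto streptavidin magnetic beads and blocked. Kinase, beads and compound were then equilibrated 1 hour at room temperature, washed, and eluted with non-biotinylated ligand. Eluted kinase was measured by qPCR, with Kd fitted from an eleven-point threefold dilution series.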

[2] = target: T2, FLT3 (Homo sapiens, UniProt P36888); test: Competition binding assay, FLT3 Kd
T2 construct: made in house
T2 sequence (P36888 27-993): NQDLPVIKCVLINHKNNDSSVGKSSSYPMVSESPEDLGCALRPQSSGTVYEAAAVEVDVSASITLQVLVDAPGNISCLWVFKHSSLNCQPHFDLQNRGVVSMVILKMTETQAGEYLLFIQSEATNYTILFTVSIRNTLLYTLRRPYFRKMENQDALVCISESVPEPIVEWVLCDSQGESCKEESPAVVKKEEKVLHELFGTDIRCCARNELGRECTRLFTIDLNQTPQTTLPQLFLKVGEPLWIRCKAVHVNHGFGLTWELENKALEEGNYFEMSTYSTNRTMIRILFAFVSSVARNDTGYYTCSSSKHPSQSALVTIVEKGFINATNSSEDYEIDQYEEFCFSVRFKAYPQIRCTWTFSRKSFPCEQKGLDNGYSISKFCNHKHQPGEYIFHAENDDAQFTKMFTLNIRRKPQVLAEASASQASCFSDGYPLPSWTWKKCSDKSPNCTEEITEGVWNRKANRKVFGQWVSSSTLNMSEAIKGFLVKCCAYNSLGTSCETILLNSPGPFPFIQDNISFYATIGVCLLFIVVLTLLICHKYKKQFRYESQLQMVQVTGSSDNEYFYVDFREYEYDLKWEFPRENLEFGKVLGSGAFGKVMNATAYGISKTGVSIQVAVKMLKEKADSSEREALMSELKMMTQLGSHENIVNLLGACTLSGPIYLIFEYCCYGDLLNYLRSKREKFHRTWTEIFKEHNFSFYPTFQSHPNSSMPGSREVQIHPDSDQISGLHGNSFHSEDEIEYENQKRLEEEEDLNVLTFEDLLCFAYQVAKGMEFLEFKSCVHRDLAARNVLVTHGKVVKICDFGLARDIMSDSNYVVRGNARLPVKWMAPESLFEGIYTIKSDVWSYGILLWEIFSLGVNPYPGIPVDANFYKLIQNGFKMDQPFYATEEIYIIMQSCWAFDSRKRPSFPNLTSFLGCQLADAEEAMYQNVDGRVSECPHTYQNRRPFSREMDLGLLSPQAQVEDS
Procedure, shortened: as §1

[3] = target: T3, PDGFRβ (Homo sapiens, UniProt P09619); test: Competition binding assay, PDGFRβ Kd
T3 construct: made in house
Procedure, shortened: as §1

[4] = test system: M-NFS-60 cells; test: M-NFS-60 cell proliferation assay (Alamar Blue); format: cell-based, mouse; conditions: read-out: CSF1R M-NFS-60 CTB:IC50
Procedure, shortened: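 Mouse M-NFS-60 cells growing on 20 ng/mL M-CSF in RPMI/10% FBS were exposed to compounds (9 half-log concentrations, 0.5% DMSO) for 72 h at 37 °C. Viability read by Alamar Blue fluorescence (ex 560/em 590 nm, 3 h). IC50 = 50% proliferation inhibition versus control, mean of duplicates.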

[5] = target: T4, KIT (Homo sapiens, UniProt P10721); test: Competition binding assay, KIT Kd
T4 construct: made in house
Procedure, shortened: as §1

[6] = target: T1, CSF1R; test: HEK293 CSF1R phosphorylation MSD assay; format: cell-based; design: expressed in transfected cells; host or cells: HEK293; conditions: read-out: HEK293 pCSF1R M-CSF MSD:IC50
Procedure, shortened: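 HEK293 cells expressing CSF1R-FKBP were pretreated 2 h at 37° C with 9 half-log concentrations of compound (0.5% DMSO final), then stimulated 5 min with 50 ng/mL human M-CSF. Lysates captured on biotin-FK506 plates; phosphotyrosine detected by MSD electrochemiluminescence. IC50 versus DMSO, averaged from duplicate plates.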

[7] = Mus musculus, M-NFS-60 cell proliferation
[8] = HEK293 cells, M-CSF stimulated CSF1R phosphorylation, MSD

T4 sequence (P10721 26-976): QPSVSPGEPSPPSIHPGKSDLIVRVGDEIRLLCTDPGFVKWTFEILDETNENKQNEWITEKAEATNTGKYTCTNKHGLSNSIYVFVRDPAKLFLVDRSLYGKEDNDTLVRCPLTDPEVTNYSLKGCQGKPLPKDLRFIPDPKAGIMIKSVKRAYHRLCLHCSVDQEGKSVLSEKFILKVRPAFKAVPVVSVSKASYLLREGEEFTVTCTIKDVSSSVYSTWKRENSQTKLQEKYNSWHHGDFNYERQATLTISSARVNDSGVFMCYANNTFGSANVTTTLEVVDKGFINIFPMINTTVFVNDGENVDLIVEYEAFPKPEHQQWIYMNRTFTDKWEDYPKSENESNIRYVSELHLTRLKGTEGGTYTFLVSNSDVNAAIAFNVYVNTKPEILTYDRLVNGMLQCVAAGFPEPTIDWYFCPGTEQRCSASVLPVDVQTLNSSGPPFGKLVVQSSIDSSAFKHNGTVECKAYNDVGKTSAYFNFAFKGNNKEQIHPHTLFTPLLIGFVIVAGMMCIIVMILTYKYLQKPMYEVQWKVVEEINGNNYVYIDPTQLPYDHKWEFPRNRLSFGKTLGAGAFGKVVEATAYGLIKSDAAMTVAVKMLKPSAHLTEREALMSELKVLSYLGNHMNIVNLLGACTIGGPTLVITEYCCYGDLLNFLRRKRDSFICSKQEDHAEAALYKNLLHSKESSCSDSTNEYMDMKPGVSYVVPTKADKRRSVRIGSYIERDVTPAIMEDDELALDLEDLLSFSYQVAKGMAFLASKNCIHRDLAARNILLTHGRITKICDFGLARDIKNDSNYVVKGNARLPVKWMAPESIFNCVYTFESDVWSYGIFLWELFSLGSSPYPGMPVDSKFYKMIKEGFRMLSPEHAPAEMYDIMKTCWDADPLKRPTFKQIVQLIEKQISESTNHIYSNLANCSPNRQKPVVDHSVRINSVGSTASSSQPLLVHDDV
T1 sequence (P07333 20-972): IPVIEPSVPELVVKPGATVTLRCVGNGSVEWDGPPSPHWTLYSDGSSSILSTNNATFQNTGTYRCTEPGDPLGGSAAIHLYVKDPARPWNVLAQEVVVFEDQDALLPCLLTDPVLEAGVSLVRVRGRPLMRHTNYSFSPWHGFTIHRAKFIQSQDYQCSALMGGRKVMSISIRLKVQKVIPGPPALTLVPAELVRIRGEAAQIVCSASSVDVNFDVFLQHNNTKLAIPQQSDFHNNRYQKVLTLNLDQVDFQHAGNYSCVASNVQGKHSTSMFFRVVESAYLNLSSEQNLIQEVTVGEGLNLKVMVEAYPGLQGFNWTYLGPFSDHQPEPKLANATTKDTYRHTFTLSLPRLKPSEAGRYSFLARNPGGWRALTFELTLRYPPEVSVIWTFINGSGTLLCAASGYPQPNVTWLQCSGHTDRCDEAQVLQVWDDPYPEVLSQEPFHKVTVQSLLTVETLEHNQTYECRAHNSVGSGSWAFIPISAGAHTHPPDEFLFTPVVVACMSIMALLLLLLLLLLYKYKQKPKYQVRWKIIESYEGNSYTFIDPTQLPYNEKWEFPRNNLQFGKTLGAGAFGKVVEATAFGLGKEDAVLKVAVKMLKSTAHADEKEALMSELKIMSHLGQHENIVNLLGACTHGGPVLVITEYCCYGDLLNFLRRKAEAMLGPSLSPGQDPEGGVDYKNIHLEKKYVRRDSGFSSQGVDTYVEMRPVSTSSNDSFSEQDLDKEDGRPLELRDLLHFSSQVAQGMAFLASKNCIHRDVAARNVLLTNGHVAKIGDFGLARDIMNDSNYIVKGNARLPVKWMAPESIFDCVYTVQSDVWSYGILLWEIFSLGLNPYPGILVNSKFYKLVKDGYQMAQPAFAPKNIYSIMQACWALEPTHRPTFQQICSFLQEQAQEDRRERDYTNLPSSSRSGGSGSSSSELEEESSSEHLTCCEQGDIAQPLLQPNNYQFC
T3 sequence (P09619 33-1106): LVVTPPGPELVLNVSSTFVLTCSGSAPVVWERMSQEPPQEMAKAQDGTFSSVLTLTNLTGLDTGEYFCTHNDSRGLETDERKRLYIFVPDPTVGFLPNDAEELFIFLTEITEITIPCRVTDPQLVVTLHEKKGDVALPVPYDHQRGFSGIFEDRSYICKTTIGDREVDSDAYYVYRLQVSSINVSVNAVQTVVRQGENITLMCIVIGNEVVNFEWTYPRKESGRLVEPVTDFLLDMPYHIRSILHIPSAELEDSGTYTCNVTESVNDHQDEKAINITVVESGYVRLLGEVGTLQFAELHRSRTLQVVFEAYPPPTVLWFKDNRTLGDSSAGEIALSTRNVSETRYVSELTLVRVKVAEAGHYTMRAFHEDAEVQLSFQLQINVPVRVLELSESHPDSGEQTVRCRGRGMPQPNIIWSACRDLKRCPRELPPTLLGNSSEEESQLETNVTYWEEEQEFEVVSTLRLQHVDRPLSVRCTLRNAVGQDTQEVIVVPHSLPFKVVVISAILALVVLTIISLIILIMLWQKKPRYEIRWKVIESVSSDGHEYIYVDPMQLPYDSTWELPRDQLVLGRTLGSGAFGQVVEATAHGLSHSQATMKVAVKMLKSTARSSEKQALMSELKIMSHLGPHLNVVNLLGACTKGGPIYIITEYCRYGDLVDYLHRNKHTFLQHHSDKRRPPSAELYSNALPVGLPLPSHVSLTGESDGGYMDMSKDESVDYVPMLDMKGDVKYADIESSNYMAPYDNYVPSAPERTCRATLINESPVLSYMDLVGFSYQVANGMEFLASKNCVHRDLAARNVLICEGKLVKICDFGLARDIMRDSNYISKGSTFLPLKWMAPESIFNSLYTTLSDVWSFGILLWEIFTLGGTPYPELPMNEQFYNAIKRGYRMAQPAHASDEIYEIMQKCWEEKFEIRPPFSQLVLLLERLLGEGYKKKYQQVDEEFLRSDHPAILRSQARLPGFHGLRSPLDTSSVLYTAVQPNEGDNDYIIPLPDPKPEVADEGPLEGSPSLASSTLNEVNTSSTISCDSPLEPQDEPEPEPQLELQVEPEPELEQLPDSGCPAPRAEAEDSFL

Compound	Kd ([1]; competition binding) [nM]	Kd ([2]; competition binding) [nM]	Kd ([3]; competition binding) [nM]	IC50 [4, 7] [nM]	Kd ([5]; competition binding) [nM]	IC50 [6, 8] [nM]	Kd [1] [nM]	Kd [2] [nM]	Kd [3] [nM]	IC50 ([4]; 72 hours incubation, M-CSF 20 ng/mL) [nM]	Kd [5] [nM]	IC50 ([6]; 2 h compound, human M-CSF 50 ng/mL for 5 min) [nM]
CN(C)CC(=O)c1cnc2c(c1)ncn2Cc1ccc2nc(N[C@@H]3CCCC[C@H]3O)sc2c1 [Example 116, 2-(dimethylamino)-1-(3-((2-(((1R,2R)-2-hydroxycyclohexyl)amino)benzo[d]thiazol-6-yl)methyl)-3H-imidazo[4,5-b]pyridine-6-yl)ethanone acetate salt]	5 to 20	200 to 1000	50 to 500	> 1500	100 to 500	50 to 200						
OCCOc1ccn2c(Cc3ccc4nc(N[C@@H]5CCCC[C@H]5O)sc4c3)cnc2c1 [Example 135, (1R,2R)-2-((6-((7-(2-hydroxyethoxy)imidazo[1,2-a]pyridin-3-yl)methyl)benzo[d]thiazol-2-yl)amino)cyclohexanol]	5 to 20	> 5000	500 to 2000	50 to 400	500 to 2000	50 to 200						
O[C@@H]1CCCC[C@H]1Nc1nc2ccc(Cn3cnc4cc(C5=CCOCC5)ccc43)cc2s1 [Example 174, (1R,2R)-2-((6-((5-(3,6-dihydro-2H-pyran-4-yl)-1H-benzo[d]imidazol-1-yl)methyl)benzo[d]thiazol-2-yl)amino)cyclohexanol]	≤ 5	≤ 200	≤ 50	≤ 50	≤ 100	≤ 50						
COc1ccccc1Nc1nc2ccc(Cn3cnc4cc(F)cnc43)cc2s1 [Example 197, 6-((6-fluoro-3H-imidazo[4,5-b]pyridin-3-yl)methyl)-N-(2-methoxyphenyl)benzo[d]thiazol-2-amine]	5 to 20	> 5000	50 to 500	400 to 1500	100 to 500	> 500						
O[C@@H]1CCCC[C@H]1Nc1nc2ccc(Cn3cnc4cc(C5=CCNCC5)ccc43)cc2s1 [Example 225, (1R,2R)-2-((6-((5-(1,2,3,6-tetrahydropyridin-4-yl)-1H-benzo[d]imidazol-1-yl)methyl)benzo[d]thiazol-2-yl)amino)cyclohexanol]	≤ 5	200 to 1000	≤ 50	400 to 1500	≤ 100	50 to 200						
(1R,2R)-1-((6-((4-(1-methyl-1H-pyrazol-4-yl)-1H-imidazol-1-yl)methyl)benzo[d]thiazol-2-yl)amino)-2,3-dihydro-1H-inden-2-ol or (1R,2R)-1-((6-((5-(1-methyl-1H-pyrazol-4-yl)-1H-imidazol-1-yl)methyl)benzo[d]thiazol-2-yl)amino)-2,3-dihydro-1H-inden-2-ol [Example 32]							> 50	200 to 1000	> 2000	> 1500	> 2000	> 500
